Consider one molecule from patent publication US7579350B2, “Scaffolds for α-helix mimicry” (The Scripps Research Institute, priority 2005, dated 2009).

By melting point is commonly meant the temperature, or range, at which the solid turns liquid.

`COC(=O)c1cccc(-c2nnc(-c3ccccc3[N+](=O)[O-])cc2Cc2ccccc2)c1` displayed a melting point of 130 °C.
